Biological target: Lethal factor protease (Bacillus anthracis, UniProt P15917)
Test: biochemical
Settings: LF (FRET) Ki^app

Lethal factor protease, sequence (P15917 34-809 limits assumed): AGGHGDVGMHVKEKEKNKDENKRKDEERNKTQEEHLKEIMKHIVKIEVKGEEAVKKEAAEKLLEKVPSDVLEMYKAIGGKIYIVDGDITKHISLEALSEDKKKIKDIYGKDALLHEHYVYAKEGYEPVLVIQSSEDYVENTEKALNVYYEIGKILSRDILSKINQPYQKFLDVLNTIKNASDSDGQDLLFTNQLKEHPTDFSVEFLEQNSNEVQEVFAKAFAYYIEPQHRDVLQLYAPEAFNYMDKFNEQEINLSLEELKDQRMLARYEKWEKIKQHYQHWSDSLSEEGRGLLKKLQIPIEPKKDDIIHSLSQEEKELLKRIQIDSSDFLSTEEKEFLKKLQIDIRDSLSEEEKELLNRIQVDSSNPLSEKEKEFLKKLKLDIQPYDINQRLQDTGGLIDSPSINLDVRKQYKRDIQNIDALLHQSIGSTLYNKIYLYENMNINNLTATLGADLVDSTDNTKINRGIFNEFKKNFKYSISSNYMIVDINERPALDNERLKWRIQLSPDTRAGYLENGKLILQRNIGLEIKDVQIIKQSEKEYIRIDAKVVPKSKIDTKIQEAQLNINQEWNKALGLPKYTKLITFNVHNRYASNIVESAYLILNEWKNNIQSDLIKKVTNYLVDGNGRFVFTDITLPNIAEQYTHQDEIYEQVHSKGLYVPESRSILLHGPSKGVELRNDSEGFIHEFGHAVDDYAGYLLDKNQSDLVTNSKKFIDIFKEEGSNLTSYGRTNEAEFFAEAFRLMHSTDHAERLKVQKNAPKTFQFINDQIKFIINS

| SMILES | Ki |
| --- | --- |
| O=C(CCC(O)c1ccc(F)cc1)NO (racemic) [Compound 166976, 4-(4-fluorophenyl)-N,4-dihydroxybutanamide] | 138 µM |
| O=C(CCC(OCc1ccccc1)c1ccc(F)cc1)NO (racemic) [Compound 167151, 4-(benzyloxy)-4-(4-fluorophenyl)-N-hydroxybutanamide] | 130 µM |
| CCOC(CCC(=O)NO)c1ccc(F)cc1 (racemic) [Compound 167173, 4-ethoxy-4-(4-fluorophenyl)-N-hydroxybutanamide] | 171 µM |
| CSC(CCC(=O)NO)c1ccc(F)cc1 (racemic) [Compound 167366, 4-(4-Fluoro-phenyl)-N-hydroxy-4-methylsulfanyl-butyramide] | 10.9 µM |
| COC(CCC(=O)NO)c1ccc(F)cc1 (stereo not shown) [Compound 167157, 4-(4-fluorophenyl)-N-hydroxy-4-methoxybutanamide] | 11.7 µM |
| CO[C@H](CCC(=O)NO)c1ccc(F)cc1 [Compound 167204, (R)-4-(4-fluorophenyl)-N-hydroxy-4-methoxybutanamide] | 7.9 µM |
| CO[C@@H](CCC(=O)NO)c1ccc(F)cc1 [Compound 167205, (S)-4-(4-fluorophenyl)-N-hydroxy-4-methoxybutanamide] | 225 µM |
| O=C(CC[C@@H](O)c1ccc(F)cc1)NO [Compound 167206, (R)-4-(4-fluorophenyl)-N,4-dihydroxybutanamide] | 66.1 µM |
| CO[C@H](CCC(=O)NO)c1ccc(F)c(C)c1 [Compound 167223, (R)-4-(4-fluoro-3-methylphenyl)-N-hydroxy-4-methoxybutanamide] | 11.9 µM |
| COC(CCC(=O)NO)c1ccc(F)c(C)c1 (stereo not shown) [Compound 167232, 4-(4-fluoro-3-methylphenyl)-N-hydroxy-4-methoxybutanamide] | 8.9 µM |
| COC(CC(Cc1ccccc1)C(=O)NO)c1ccc(F)cc1 (stereo not shown) [Compound 167285] | > 300 µM |
| COC(CC(Cc1ccccc1)C(=O)NO)c1ccc(F)cc1 (stereo not shown) [Compound 167286, 2-Benzyl-4-(4-fluorophenyl)-N-hydroxy-4-methoxy-butyramide] | 168 µM |
| COC(CC(C)C(=O)NO)c1ccc(F)cc1 (stereo not shown) [Compound 167288, 4-(4-Fluoro-phenyl)-N-hydroxy-4-methoxy-2-methyl-butyramide] | 3.1 µM |
| CO[C@H](C[C@H](C)C(=O)NO)c1ccc(F)cc1 [Compound 167297, (2S,4R)-4-(4-fluorophenyl)-N-hydroxy-4-methoxy-2-methylbutanamide] | 2.3 µM |
| CO[C@H](C[C@H](Cc1ccccc1)C(=O)NO)c1ccc(F)cc1 [Compound 167298] | 89.5 µM |
| COC(CC(CCc1ccccc1)C(=O)NO)c1ccc(F)cc1 (stereo not shown) [Compound 167308, 4-(4-fluorophenyl)-N-hydroxy-4-methoxy-2-phenethylbutanamide] | 2.4 µM |
| CCCC[C@@H](C[C@@H](OC)c1ccc(F)cc1)C(=O)NO [Compound 167336, (S)-2-((R)-2-(4-fluorophenyl)-2-methoxyethyl)-N-hydroxyhexanamide] | 1.9 µM |
| CO[C@H](C[C@H](CCCc1ccccc1)C(=O)NO)c1ccc(F)cc1 [Compound 167337, (2S)-2-((2R)-2-(4-fluorophenyl)-2-methoxyethyl)-N-hydroxy-5-phenylpentanamide] | 7.8 µM |
| CO[C@@H](C[C@@H](CCCc1ccccc1)C(=O)NO)c1ccc(F)cc1 [Compound 167341, (2R)-2-((2S)-2-(4-fluorophenyl)-2-methoxyethyl)-N-hydroxy-5-phenylpentanamide] | 18 µM |
| CCCC[C@H](C[C@@H](OC)c1ccc(F)cc1)C(=O)NO [Compound 167353, (2R)-2-((2R)-2-(4-fluorophenyl)-2-methoxyethyl)-N-hydroxyhexanamide] | 5.8 µM |
| CO[C@H](C[C@H](C/C=C/c1ccccc1)C(=O)NO)c1ccc(F)cc1 [Compound 167354] | 9.3 µM |
| CO[C@H](C[C@H](C/C=C/C(c1ccccc1)c1ccccc1)C(=O)NO)c1ccc(F)cc1 [Compound 167371, (2S,4E)-2-((2R)-2-(4-fluorophenyl)-2-methoxyethyl)-N-hydroxy-6,6-diphenylhex-4-enamide] | 14 µM |
| CCCC[C@H](C[C@H](OC)c1ccc(F)cc1)C(=O)NO [Compound 167389, (2R)-2-((2S)-2-(4-fluorophenyl)-2-methoxyethyl)-N-hydroxyhexanamide] | 75.6 µM |
| CCCC[C@@H](C[C@H](OC)c1ccc(F)cc1)C(=O)NO [Compound 167390, (25)-2-((2S)-2-(4-fluorophenyl)-2-methoxyethyl)-N-hydroxyhexanamide] | 224 µM |
| CO[C@H](C[C@@H](CCCc1ccccc1)C(=O)NO)c1ccc(F)cc1 [Compound 167395, (2R)-2-((2R)-2-(4-fluorophenyl)-2-methoxyethyl)-N-hydroxy-5-phenylpentanamide] | 78.6 µM |
| CO[C@@H](C[C@H](CCCc1ccccc1)C(=O)NO)c1ccc(F)cc1 [Compound 167408] | > 300 µM |

| SMILES | Ki |
| --- | --- |
| CCC[C@@H](C[C@@H](OC)c1ccc(F)cc1)C(=O)NO [Compound 167432, (S)-2-((R)-2-(4-fluorophenyl)-2-methoxyethyl)-N-hydroxypentanamide] | 1.57 µM |
| CO[C@H](C[C@H](CC1CC1)C(=O)NO)c1ccc(F)cc1 [Compound 167433, (2S,4R)-2-(cyclopropylmethyl)-4-(4-fluorophenyl)-N-hydroxy-4-methoxybutanamide] | 1.4 µM |
| C=CC[C@@H](C[C@@H](OC)c1ccc(F)cc1)C(=O)NO [Compound 167434, (2S)-2-((2R)-2-(4-fluorophenyl)-2-methoxyethyl)-N-hydroxypent-4-enamide] | 1.16 µM |
| COC(CCC(=O)NO)c1cccc(F)c1 (stereo not shown) [Compound 167456, 4-(3-fluorophenyl)-N-hydroxy-4-methoxybutanamide] | 51.6 µM |
| COc1ccc(C(CCC(=O)NO)OC)cc1 (stereo not shown) [Compound 167457, N-hydroxy-4-methoxy-4-(4-methoxyphenyl)butanamide] | 193 µM |
| COc1cccc(C(CCC(=O)NO)OC)c1 (stereo not shown) [Compound 167458, N-hydroxy-4-methoxy-4-(3-methoxyphenyl)butanamide] | 276 µM |
| COC(CCC(=O)NO)c1ccc(Cl)cc1 (stereo not shown) [Compound 167460, 4-(4-chlorophenyl)-N-hydroxy-4-methoxybutanamide] | 52.3 µM |
| COC(CCC(=O)NO)c1cccc(Cl)c1 (stereo not shown) [Compound 167461, 4-(3-chlorophenyl)-N-hydroxy-4-methoxybutanamide] | 87.4 µM |
| COC(CCC(=O)NO)c1ccc(C)c(F)c1 (stereo not shown) [Compound 167463, 4-(3-fluoro-4-methylphenyl)-N-hydroxy-4-methoxybutanamide] | 65.6 µM |
| COC(CCC(=O)NO)c1cccc(C)c1 (stereo not shown) [Compound 167491, N-hydroxy-4-methoxy-4-m-tolylbutanamide] | 176 µM |
| COC(CCC(=O)NO)c1cccc(C(F)(F)F)c1 (stereo not shown) [Compound 167492, N-hydroxy-4-methoxy-4-(3-(trifluoromethyl)phenyl)butanamide] | > 300 µM |
| COC(CCC(=O)NO)c1cccc(C)c1C (stereo not shown) [Compound 167495, 4-(2,3-dimethylphenyl)-N-hydroxy-4-methoxybutanamide] | 269 µM |
| COC(CCC(=O)NO)c1ccc(-c2ccccc2)cc1 (stereo not shown) [Compound 167506, 4-(biphenyl-4-yl)-N-hydroxy-4-methoxybutanamide] | 85.1 µM |
| COC(CCC(=O)NO)c1ccc(C(F)(F)F)cc1 (stereo not shown) [Compound 167511, N-hydroxy-4-methoxy-4-(4-(trifluoromethyl)phenyl)butanamide] | 240 µM |
| COC(CCC(=O)NO)c1ccccc1C (stereo not shown) [Compound 167540, N-hydroxy-4-methoxy-4-o-tolylbutanamide] | 152 µM |
| COC(CCC(=O)NO)c1ccc(C)cc1C (stereo not shown) [Compound 167541, 4-(2,4-dimethylphenyl)-N-hydroxy-4-methoxybutanamide] | 134 µM |
| COC(CCC(=O)NO)c1ccccc1F (stereo not shown) [Compound 167564, 4-(2-fluorophenyl)-N-hydroxy-4-methoxybutanamide] | 52.4 µM |
| C=CC[C@H](C[C@@H](OC)c1ccc(F)c(C)c1)C(=O)NO [Compound 167672, (2R)-2-((2R)-2-(4-fluoro-3-methylphenyl)-2-methoxyethyl)-N-hydroxypent-4-enamide] | 42 µM |
| C=CC[C@@H](C[C@@H](OC)c1ccc(F)c(C)c1)C(=O)NO [Compound 167673, (S)-2-((R)-2-(4-Fluoro-3-methylphenyl)-2-methoxyethyl)-N-hydroxypent-4-enamide] | 6.6 µM |
| CCC[C@H](C[C@@H](OC)c1ccc(F)c(C)c1)C(=O)NO [Compound 167674, (2R)-2-((2R)-2-(4-fluoro-3-methylphenyl)-2-methoxyethyl)-N-hydroxypentanamide] | 24 µM |
| CCC[C@@H](C[C@@H](OC)c1ccc(F)c(C)c1)C(=O)NO [Compound 167675, (2S)-2-((2R)-2-(4-fluoro-3-methylphenyl)-2-methoxyethyl)-N-hydroxypentanamide] | 2.6 µM |
| CO[C@H](C[C@H](CCN(Cc1ccccc1)C(C)C)C(=O)NO)c1ccc(F)cc1 [Compound 167784, (2S,4R)-2-(2-(benzyl(isopropyl)amino)ethyl)-4-(4-fluorophenyl)-N-hydroxy-4-methoxybutanamide] | 14 µM |
| CO[C@H](C[C@H](CCN(C)Cc1ccccc1)C(=O)NO)c1ccc(F)cc1 [Compound 167785, (2S,4R)-2-(2-(benzyl(methyl)amino)ethyl)-4-(4-fluorophenyl)-N-hydroxy-4-methoxybutanamide] | 2 µM |
| CO[C@H](C[C@H](CCN(C)Cc1ccc(F)cc1)C(=O)NO)c1ccc(F)cc1 [Compound 167795, (2S,4R)-2-(2-((4-fluorobenzyl)(methyl)amino)ethyl)-4-(4-fluorophenyl)-N-hydroxy-4-methoxybutanamide] | 2.1 µM |
| CO[C@H](C[C@H](CCN(c1ccccc1)c1ccccc1)C(=O)NO)c1ccc(F)cc1 [Compound 167796, (2S)-(2-Diphenylamino-ethyl)-(4R)-(4-fluoro-phenyl)-N-hydroxy-4-methoxy-butyramide] | 2.1 µM |
| CCCCN(C)CC[C@@H](C[C@@H](OC)c1ccc(F)cc1)C(=O)NO [Compound 167828, (2S,4R)-2-(2-(butyl(methyl)amino)ethyl)-4-(4-fluorophenyl)-N-hydroxy-4-methoxybutanamide] | 1.1 µM |
